Measured values: patent publication US20230101236A1, “COSMETIC COMPOSITION” (GIVAUDAN SA, priority 2020, published 2023)

System: skin microbiome
Assay: Conversion of crocin to crocetin by the skin microbiome (in vitro)
Assay type: in vitro ADME
Description: Sampling of skin microbiome was performed on 7 volunteers with a sterile gauze impregnated with NaCl in 5 areas: forehead, cheek, nose, neck, forearm. All samples were combined to obtain a representative skin microbiota composition. The thus obtained microbiome was cultured in liquid medium (buffered HT medium) at 30° C. in the presence of crocin. Supernatants were collected regularly and analyzed by HPLC-MS to detect crocin and crocetin.

Compound	concentration, % of maximum concentration detected (skin microbiome culture with crocin, 42 h) [%]	concentration, % of maximum concentration detected (skin microbiome culture with crocin, 66 h) [%]	concentration, % of maximum concentration detected (skin microbiome culture with crocin, 90 h) [%]	concentration, % of maximum concentration detected (skin microbiome culture with crocin, 162 h) [%]	concentration, % of maximum concentration detected (skin microbiome culture with crocin, 186 h) [%]	concentration, % of maximum concentration detected (skin microbiome culture with crocin, 210 h) [%]	time for complete transformation to crocetin (human) [h]	concentration, % of maximum concentration detected (human, 0 h) [%]	concentration, % of maximum concentration detected (human, 18 h) [%]	concentration, % of maximum concentration detected (human, 42 h) [%]	concentration, % of maximum concentration detected (human, 66 h) [%]	concentration, % of maximum concentration detected (human, 90 h) [%]
CC(/C=C/C=C(\C)C(=O)O)=C\C=C\C=C(C)\C=C\C=C(/C)C(=O)O [Crocetin]	0.7	7.9	30.5	65.3	101.3	101.3						
CC(/C=C/C=C(\C)C(=O)O[C@@H]1O[C@H](CO[C@@H]2O[C@H](CO)[C@@H](O)[C@H](O)[C@H]2O)[C@@H](O)[C@H](O)[C@H]1O)=C\C=C\C=C(C)\C=C\C=C(/C)C(=O)O[C@@H]1O[C@H](CO[C@@H]2O[C@H](CO)[C@@H](O)[C@H](O)[C@H]2O)[C@@H](O)[C@H](O)[C@H]1O [Crocin]							≤ 210	100	100	47.5	2.9	0.1
